This note sets out measurements from US12533359B2, “Method for preventing hair loss” (Icahn School of Medicine at Mount Sinai, priority 2019, dated 2026).

“Also recorded” adds a separate entry of the source.

The subject of experiment [1] is microdissected hair follicles (dermal sheath contraction). Nature of the experiment: Ex vivo hair follicle contraction assay (live imaging of microdissected follicles, high K+ depolarization). The following applies: preincubation with 200 μM ML7 HCl for 1 hour, follicles from P8 back skin, hydrochloride. The class given is cell-based, mouse. Here is the method: Whether DS cells can functionally contract in a smooth muscle-like fashion through Ca2+-dependent MLCK activation was then explored. Isolated, short-term cultured DS cells were membrane depolarized by an extracellular K+ spike to activate voltage-gated Ca2+ channels in the presence of Fluo8 fluorescent Ca2+ indicator. The switch from high Na+ to high K+ media led to effective Ca2+ influx within 1.5 minutes (FIG. 3A). […] Next, whether the DS can functionally contract and compress intact hair follicles isolated by microdissection (FIG. 3C) was tested.
Hair follicles were microdissected from P8 back skin under a Leica S6E stereomicroscope in PBS and collected in 24-well plates. Media was then changed to Krebs buffer+glucose with or without 200 μM ML7 HCl (Tocris) and incubated for 1 hour at 37° C. Single follicles were then transferred to a 6 cm petri dishes immersed in Krebs buffer+glucose and immobilized by embedding the hair shaft tips in a 5×5 mm piece of parafilm. Follicles were then imaged under brightfield illumination on a Leica inverted DM6000 microscope in an enclosed live cell chamber at 37° C. with 5% CO2. Images were taken with a 10× air lens with time intervals of 10 seconds. During imaging, media was exchanged for Krebs buffer+glucose with KCl supplanting NaCl and follicles were refocused when necessary, which took a duration of no more than 10 seconds. […]

The test system of experiment [2] is hair follicle regression (catagen) in back skin. As to the kind of experiment: In vivo contraction inhibition (topical application on back skin during catagen). Details: species or system mice. The following applies: 1 mM in 20 μl DMSO, topical twice daily P13 to P19, back skin analysed at P20. From the text:
To determine whether smooth muscle-like contraction is a main function of the DS to propagate hair follicle regression in vivo, the MLCK pathway was blocked by twice-daily topical application of ML7 throughout catagen on the back skin of mice (FIG. 3G). On the contralateral vehicle control side, follicles regressed normally into telogen with the DP niche relocated next to the SC reservoir (FIG. 3H). […] However, in contrast to ablated follicles, the DS as expected surrounds follicles including DP. […] Patches of lateral back skin measuring 1×1 cm of P13 mice (2 patches per mouse) were clipped and then shaved with a razor blade until no external hair shafts within patches remained. Vehicle-only control DMSO or ML7 HCl (Tocris) dissolved in an equal volume of DMSO (1 mM in 20 μl) was pipetted onto hairless patches and locally rubbed into the skin using a glass rod until visibly dry. Topical applications were performed twice daily from P13 to P19, once in the morning and once in the evening separated by 12 hours. Pieces of back skins including treated areas were then harvested at P20 for downstream analysis.

As to `Cl.O=S(=O)(c1cccc2c(I)cccc12)N1CCCNCC1` [ML7, hexahydro-1-[(5-iodo-1-naphthalenyl)sulfonyl]-1H-1,4-diazepine hydrochloride], the “reduction of follicle widths in high K+ (follicle contraction)” value in experiment [1] was “effectively blocked”. For the same compound, in experiment [2], the “DP niche relocation to the stem cells” value is recorded as “the DP remains at the tip of stalled follicles”. Besides, the “hair follicle regression into telogen (stalled follicles)” value in experiment [2] (contralateral DMSO vehicle control, hydrochloride) was “striking failure of regression with long stalled follicles stranded deep in the dermis; also recorded: blocks hair follicle regression in vivo”.
